Blank lines part the entries; values can stand above or below the molecule they belong to.
Assay: Pooled population PK analysis of dC and dT (five studies: healthy volunteers, renal impairment, TK2d participants)
Settings: human, in vivo
Protocol: A phase 2 study was conducted as an open-label continuation of treatment with MT1621 in participants with TK2designed to evaluate the safety, tolerability, and PK of MT1621 (fixed dose combination of dC and dT supplied in a single packet). The study enrolled forty-seven (47) participants. After enrollment, participants transitioned from their current chemical grade 2′-deoxycytidine monophosphate/2′-deoxythymidine monophosphate (dCMP/dTMP) to deoxycytidine and deoxythymidine, or continued the use of deoxycytidine and deoxythymidine. Upon enrollment, participants who were on a stable maintenance dose of 400 mg/kg/day were treated with the same dose of deoxycytidine and deoxythymidine three-times daily (TID). Study participants who were on a total dose <400 mg/kg/day were transitioned to either 260 mg/kg/day (130 mg/kg/day of deoxycytidine and 130 mg/kg/day of deoxythymidine) TID, 520 mg/kg/day (260 mg/kg/day of deoxycytidine and 260 mg/kg/day of deoxythymidine) TID, or 800 mg/kg/day (400 mg/kg/day of deoxycytidine and 400 mg/kg/day of deoxythymidine) TID, depending on which was closest to the participants' previous dose.
The early protocol for deoxycytidine and deoxythymidine administration was for the participants to take the drug product without regard to food. […] Later in the program, when an unexpected effect of food on PK was noted, the protocol was amended to instruct the participants to take the drug product with food. By then, planned PK samples had been taken in a majority of the participants. A total of 3 blood samples were collected from each individual following study Day 1 to measure dC plasma concentrations. Sparse PK blood sampling and PD endpoint collection was conducted according to the following schedule: at Month 1 sampled 0.5, 1, 2, or 3 hours post-dose; and at Month 3 sampled 8, 10, 12, or 14 hours post-dose. During sampling, it was noted whether food was consumed from 1 hour pre-dose to 2 hours post-dose. And, the lower limit of quantification (LLOQ) was 0.5 ng/mL for both dC and dT.
For the calculation of the PK parameters, raw (unadjusted) plasma dC and dT concentrations below the limit of quantitation (BLQ) were set to 1% the limit of quantitation (LOQ) of the assay. […] Since all participants had measurable pre-dose concentrations, Kel and associated PK parameters were not calculated for unadjusted data.
Analysis of the PK data pooled from five (5) studies (including those described in Examples 1 and 2) comprising three (3) Phase 1 studies in healthy volunteers (HV) and two (2) open-label Phase 2 studies that included both adult and pediatric study participants with TK2d. A total of 119 study participants were included, which consisted of 44 healthy study participants, 16 study participants with renal impairment (moderate or severe), and 59 participants with TK2d that included participants aged from 0.9 years to 75.6 year of age.
Pooled population PK analysis confirmed that the fed state was a statistically significant covariate of the PK of dC including the TK2 deficient participants. Table 6 reflects analysis of all dC PK data including those for TK2 deficient participants. […] This is the pertinent value to estimate food effect on dC exposures. […] The decrease in the rate of dC absorption with food (parameter Ka in Table 6) is believed to be due to slower gastric/intestinal motility in the fed state. It is likely that the effect of food on dT concentration in participants with TK2 deficiency was masked by the high variability and limited PK sampling.

- F lower in healthy volunteers compared to TK2 deficient participants: 70-90%
- bioavailability: ~83%
- decrease of F in Latino/Hispanic population: ~50%
- decrease of absorption rate constant from first input compartment (K12) with high-fat content meal: ~80%
- decrease of lag time from second input compartment (ALAG3) with high-fat content meal: ~80%
- dose proportionality of exposures following single ascending doses: more than dose proportional
- endogenous baseline across studies: 0.220 to 1.14 ng/mL
- increase of F with a high-fat content meal: ~120%
Compound: Cc1cn([C@H]2C[C@H](O)[C@@H](CO)O2)c(=O)[nH]c1=O [dT, β-D-2′-deoxythymidine]

- CL/F, apparent clearance: Bootstrap Median [2.5th-97.5th percentile]: 392000 (318000, 492000) L/h
- CL/F, apparent clearance: NONMEM Estimate (% RSE): 392000 (11.0%) L/h
- IIV on BSL: Bootstrap Median [2.5th-97.5th percentile]: 26.9% (19.4%, 35.3%)
- IIV on BSL: NONMEM Estimate (% RSE): 27.3% (15.0%) CV %
- IIV on CL/F: Bootstrap Median [2.5th-97.5th percentile]: 60.3% (36.2%, 82.3%)
- IIV on CL/F: NONMEM Estimate (% RSE): 61.6% (18.0%) CV%
- IIV on F: Bootstrap Median [2.5th-97.5th percentile]: 73.3% (37.8%, 102%)
- IIV on F: NONMEM Estimate (% RSE): 75.1% (19.8%) CV %
- IIV on Ka: Bootstrap Median [2.5th-97.5th percentile]: 62.6% (36.1%, 81.8%)
- IIV on Ka: NONMEM Estimate (% RSE): 65.9% (13.6%) CV %
- IIV on V/F: Bootstrap Median [2.5th-97.5th percentile]: 77.9% (39.3%, 107%)
- IIV on V/F: NONMEM Estimate (% RSE): 77.3% (18.0%) CV %
- IOV on F: Bootstrap Median [2.5th-97.5th percentile]: 31.4% (26.3%, 37.9%)
- IOV on F: NONMEM Estimate (% RSE): 31.5% (8.01%) CV %
- Ka, absorption rate constant: Bootstrap Median [2.5th-97.5th percentile]: 0.465 (0.361, 0.638) h^−1
- Ka, absorption rate constant: NONMEM Estimate (% RSE): 0.466 (11.5%) h^−1
- Proportional RUV: Bootstrap Median [2.5th-97.5th percentile]: 17.4% (16.1%, 18.8%)
- Proportional RUV: NONMEM Estimate (% RSE): 17.5% (3.76%)
- V/F, apparent volume of distribution: NONMEM Estimate (% RSE): 284000 (19.9%) L
- Vd/F: 278000 L
- dC BSL, dC endogenous baseline level: Bootstrap Median [2.5th-97.5th percentile]: 3.45 (3.21, 3.65) ng/mL
- dC BSL, dC endogenous baseline level: NONMEM Estimate (% RSE): 3.45 (3.29%) ng/mL
- decrease of absorption rate constant (Ka) with food intake: ~44%
- difference in F between HV and TK2 deficient participants: No difference in F was detected
- endogenous baseline across studies and populations: the same across studies and populations
Compound: Nc1ccn([C@H]2C[C@H](O)[C@@H](CO)O2)c(=O)n1 [dC, β-D-2′-deoxycytidine]

— patent US20240016938A1, “METHODS FOR INCREASING THE BIOAVAILABILITY OF NUCLEOSIDE MEDICINAL AGENTS” (ZOGENIX MDS, INC., priority 2022, published 2024)
